Assay results from patent US7737119B2, “Cosmetic or pharmaceutical composition comprising peptides, uses and treatment processes” (Societe d'Extraction des Principes Actifs S.A., priority 2002, dated 2010).
Where no end group is shown, it is not given here.

Tests used:
keratinocytes = experiment: Adhesion between cutaneous cells, MTT reading of adherent keratinocytes in 96 well micro-plates; assay type: cell-based; settings: after 3 hours of contact with the keratinocytes; compared with the other peptides tested
Protocol: The study is performed in 96 well micro-plates on keratinocytes cultured in an incubator at 37° C. and 5% of CO2.
The wells are pre-treated during 12 hours in a different way; four conditions are thus performed: • Condition A: negative control, containing no peptide; • Condition B: incubated with various peptides, made of 3 to 25 amino acids (from the extracellular matrix), with a concentration from 5 to 50 ppm; • Condition C: incubated with the peptide of sequence Arg-Asp-Phe-Thr-Lys-Ala-Thr-Asn-Ile-Arg-Leu-Arg-Phe-Leu-Arg (SEQ ID NO: 3) to a concentration of 5 ppm.
After 3 hours of contact with the keratinocytes, the wells are completely filled with culture medium, hermetically closed, turned over and agitated on a three-dimensional agitator during 20 minutes. Then the plates are emptied and the medium remaining is aspired. 100 μl of MTT with 1 mg/ml per well is added and is left during 3 hours at 37° C. and 5% of CO2. The solution is finally withdrawn and 100 μl of DMSO is added. A reading of C is made at 560 nm against 630 nm.
The results present the various Optical Density (O.D.) obtained according to the various conditions. The O.D. is proportional to the quantity of viable cells, that is to say those which adhered to the micro-plates.

[1] = Stability of peptide in solution by HPLC (C18) at various temperatures; assay type: physicochemical; settings: 10^−4 M
Protocol: Peptide SEQ ID NO: 3 Arg-Asp-Phe-Thr-Lys-Ala-Thr-Asn-Ile-Arg-Leu-Arg-Phe-Leu-Arg was analyzed with a concentration of 10^−4 M by HPLC on a C18 type column, and with a linear gradient water/TFA 0.1%-acetonitrile/TFA 0.1%.

[2] = Stability of peptide in culture medium conditioned by human fibroblasts and keratinocytes (released enzymes of degradation); assay type: in vitro ADME; settings: after 24 hours in culture medium withdrawn from human fibroblasts and keratinocytes cultured 24 hours at 37° C.
Protocol: Human fibroblasts and keratinocytes were cultured during 24 hours at 37° C. and to 5% of CO2. For this period, the cells will release numerous enzymes of degradation in the culture medium. Thereafter, the culture medium is withdrawn to be put in the presence of peptide.

[3] = system: fibroblasts as well as human keratinocytes in culture; experiment: Peptide applied to cells in culture, HPLC analysis of the culture medium; assay type: cell-based; settings: peptide applied to fibroblasts and human keratinocytes in culture, in a few hours
Protocol: A test is performed by applying the peptide to fibroblasts as well as to human keratinocytes in culture.

fibronectin = experiment: Immunofluorescence study of fibronectin expression in human fibroblasts; assay type: cell-based; settings: 1% of a solution at 100 ppm of peptide, 48 hours
Protocol: (§1) The immunofluorescence is a semi-quantitative technique which makes it possible to appreciate the rate of each protein present in the cellular cytoplasm.
(§2) Human fibroblasts are plated in Labteks then cultured for one night. After rinsing with HBS buffer, a composition containing 1% of a solution at 100 ppm of the peptide SEQ ID NO: 5, or a control composition containing no peptide, is added. The cells are then incubated for 48 hours. After performing the elimination of the supernatants and rinsing the cultures, the cells are fixed with paraformaldehyde for 30 minutes at 4° C. then rinsed with PBS buffer.
(§3) 200 μL of anti-fibronectin antibody or anti-collagen I, or anti-collagen III polyclonal antibody obtained in the rabbit (TEBU) are then added. Incubation lasts 30 minutes at room temperature. The supernatants are eliminated and the cells are rinsed with PBS. 200 μL of secondary antibody, coupled to a fluorescent marker (Alexa-fluor 488) are then added. After 30 minutes of incubation at room temperature, the supernatants are eliminated and the cells are rinsed with the PBS.
(§4) The slides are then assembled and examined under epi-fluorescence microscope (Nikon Eclipse E600). The quantities of fibronectine and/or collagen of the type I and III, synthesized by the cells, are proportional to fluorescence intensity.

type I collagen = experiment: Immunofluorescence study of type I collagen expression in human fibroblasts; assay type: cell-based; settings: 1% of a solution at 100 ppm of peptide, 48 hours
Protocol: as §1, §2, §3, §4

type III collagen = experiment: Immunofluorescence study of type III collagen expression in human fibroblasts; assay type: cell-based; settings: 1% of a solution at 100 ppm of peptide, 48 hours
Protocol: as §1, §2, §3, §4

laminin-5 = experiment: Immunofluorescence study of laminin-5 expression in HaCat human keratinocytes; assay type: cell-based; settings: 48 hours
Protocol: as §2, §3, §4
(§5) A study by immunofluorescence technique, identical to that of example 3, was performed on HaCat human keratinocytes, with anti-laminin-5 antibodies and/or β1 anti-integrin antibodies.

β1 integrin = experiment: Immunofluorescence study of β1 integrin expression in HaCat human keratinocytes; assay type: cell-based; settings: 48 hours
Protocol: as §2, §3, §4, §5

keratin = experiment: Immunofluorescence study of keratin expression in ex vivo human skin samples; assay type: cell-based; settings: 48 hours
Protocol: as §2, §3, §4
A study by immunofluorescence technique, identical to that of Example 3, was performed on ex vivo human skin samples, with anti-keratin monoclonal antibody (Novocastra).

**Q.** With DFTKATNIRLRFLR [SEQ ID NO: 11] as the substance, how does the cell adhesion (keratinocytes) read?
**A.** very good cell adhesion

**Q.** Which results are given for “RDFTKATNIRLRFLR [SEQ ID NO: 3, Arg-Asp-Phe-Thr-Lys-Ala-Thr-Asn-Ile-Arg-Leu-Arg-Phe-Leu-Arg]”?
**A.** degradation of the peptide ([1]; after 24 hours at 25° C., 37° C. and 60° C.): no degradation; degradation of the peptide ([1]; after 8 days at 25° C.): does not present degradation; degradation of the peptide [2]: almost no degradation; peptide concentration in the culture medium [3]: decreases quickly

**Q.** What does the source list for “Ile-Arg-Leu-Arg-Phe-Leu-Arg-NH2 (IRLRFLR-NH2) [SEQ ID NO: 5]”?
**A.** fibronectin synthesis (fluorescence intensity) (fibronectin): increases; type I collagen synthesis (fluorescence intensity) (type I collagen): increases; type III collagen synthesis (fluorescence intensity) (type III collagen): increases; laminin-5 synthesis (fluorescence intensity) (laminin-5): increase; β1 integrin synthesis (fluorescence intensity) (β1 integrin): increase

**Q.** Which “keratin expression (fluorescence intensity)” value (keratin) does the source give for IRLRFLR [SEQ ID NO: 4] here?
**A.** increases
